From patent publication US11179390B2, “Subcutaneous administration of a P2Y12 receptor antagonist” (Idorsia Pharmaceuticals Ltd, priority 2017, dated 2021)
Like-named read-outs stand apart in the source and are kept apart here.

Experiments:
[1] = Plasma pharmacokinetics after single subcutaneous doses, clinical phase I study; type: in vivo, human (healthy male subjects); conditions: male, human, sc, N = 6, plasma; for half-life: read-out: t1/2, G.M. (converted); for Tmax: read-out: tmax, Median
Protocol: (§1) The time- and dose-dependency of plasma concentration and inhibition of platelet aggregation (IPA) after subcutaneous administration of Compound 1 was investigated in a clinical phase I study in healthy male subjects.
(§2) In a randomized, double-blind, placebo-controlled study, 48 subjects in fasted condition were exposed to single, subcutaneous doses ranging from 1 to 32 mg (1 mg, 2 mg, 4 mg, 8 mg, 16 mg and 32 mg) of Compound 1 (n=6 on Compound 1 and n=2 on placebo per dose level).
(§3) Compound 1 for s.c. administration was available as sealed glass vials at the strength of 20 mg. The vials contained lyophilized Compound 1 to be reconstituted with 1 mL of water for injection to prepare stock solutions of 20 mg/mL (see above: Formulation of Compound 1 (higher dose of 20 mg/mL)). These stock solutions were further diluted with 0.9% sodium chloride to prepare 2, 4, 8, 16, and 20 mg/mL solutions. The volume injected was 0.5 mL for dose levels 1, 2, 4, and 8 mg. For dose levels 16 and 32 mg, 1 or 2 injection(s) of 0.8 mL from the 20 mg/mL solution was (were) performed.
(§4) The solution for injection was prepared for administration in a syringe suitable for s.c. injection. The solution was administered as injection(s) in the thigh.
The plasma PK parameters of Compound 1 were derived by non-compartmental analysis of the plasma concentration-time profiles. The following parameters were obtained:
maximum plasma concentration (Cmax); time to reach Cmax (tmax); area under the plasma concentration-time curve (AUC) from zero to time t of the last measured concentration above the limit of quantification (AUC0−t); and terminal elimination half-life (t1/2).
Blood was collected by direct venipuncture or via an i.v. catheter placed in an antecubital vein in the arm in a 4 mL Monovette® or equivalent tube containing ethylene diamine tetra-acetic acid. Immediately following collection of the required blood volume, the Monovettes® were slowly tilted backwards and forwards (no shaking) to bring the anticoagulant into solution, and immediately cooled on ice. Within 30 min of collection, the Monovettes® were centrifuged at approximately 1500 g for 10 min at 4° C. The plasma was transferred into one labeled polypropylene tube to avoid carry-over of erythrocytes. All samples were stored in an upright position below −70° C.
The analysis of Compound 1 in plasma was performed using a validated liquid chromatography coupled to tandem mass spectrometry assay. The lower limit of quantification (LLOQ) was 1 ng/mL. Concentrations were calculated by interpolation from a calibration curve. Quality control (QC) samples were analyzed throughout the study. Their measured concentrations were used to determine between-run and overall precision and accuracy of the analysis.

[2] = test system: Adenosine diphosphate (ADP)-induced platelet aggregation; test: Inhibition of platelet aggregation (IPA), LTA assay, after single subcutaneous doses, clinical phase I study; type: in vivo, human (healthy male subjects); conditions: for % IPA (inhibition of platelet aggregation) calculated using maximum platelet aggregation values, mean ± SD: N = 6, 20 μM ADP
Protocol: as §1, §2, §3, §4
PD blood samples were collected by direct venipuncture or via an i.v. catheter placed in an antecubital vein in the arm, using 18-21 gauge needles. The first 2 mL of blood were discarded, and, thereafter, blood was drawn gently into two open 3.5 mL collection tubes. Collection tubes for LTA (light transmission aggregometry) assays contained phenylalanine-proline-arginine-cholormethylketone (PPACK) as an anticoagulant.
Adenosine diphosphate (ADP)-induced platelet aggregation was evaluated by a LTA assay measuring platelet-induced aggregation as an increase in light transmittance (Michelson A D, Methods for the measurement of platelet function (2009) Am J Cardiol 103(3):20A-26A).
LTA assay: The two 3.5 mL blood samples were centrifuged to prepare platelet-rich plasma (PRP) and platelet-poor plasma (PPP). If needed, PRP was adjusted to a final platelet count of 260×10^9 platelets per liter by dilution with PPP from the same donor. The assay was performed with an 8-channel platelet aggregometer, recording the aggregation after addition of 20 μM ADP as agonist for 6 min. The results are expressed as percent change in light transmittance at maximum (peak) platelet aggregation (MPA), calculated relative to the baseline signal of 0%. The measurements were performed in duplicate.

[3] = Solubility in aqueous media; type: physicochemical; conditions: lyophilized disodium salt of Compound 1, reconstituted in water, pH=8.4
[4] = oral administration of Compound 1 or its prodrug, clinical phase I study; cited from earlier work
[5] = test system: FeCl3 rat thrombosis model; conditions: compared with Ticagrelor; cited from earlier work

## CCCCOC(=O)N1CCN(C(=O)[C@H](CP(=O)(O)O)NC(=O)c2cc(N3CC[C@H](OC)C3)nc(-c3ccccc3)n2)CC1 [Compound 1, 4-((R)-2-{[6-((S)-3-methoxy-pyrrolidin-1-yl)-2-phenyl-pyrimidine-4-carbonyl]-amino}-3-phosphono-propionyl)-piperazine-1-carboxylic acid butyl ester]
[1]; 1 mg s.c. single dose
  AUC(0-t): 56.1 ng·h/mL
  Cmax: 33.7 ng/mL
  half-life: 1.34 h
  Tmax: 0.5 h
[1]; 2 mg s.c. single dose
  AUC(0-t): 116 ng·h/mL
  Cmax: 58.4 ng/mL
  half-life: 1.92 h
  Tmax: 0.5 h
[1]; 4 mg s.c. single dose
  AUC(0-t): 261 ng·h/mL
  Cmax: 128 ng/mL
  half-life: 2.66 h
  Tmax: 0.5 h
[1]; 8 mg s.c. single dose
  AUC(0-t): 585 ng·h/mL
  Cmax: 273 ng/mL
  half-life: 3.98 h
  Tmax: 0.5 h
[1]; 16 mg s.c. single dose
  AUC(0-t): 1120 ng·h/mL
  Cmax: 435 ng/mL
  half-life: 7.2 h
  Tmax: 0.75 h
[1]; 32 mg s.c. single dose
  AUC(0-t): 2340 ng·h/mL
  Cmax: 930 ng/mL
  half-life: 9.2 h
  Tmax: 0.75 h
[2]; 1 mg s.c., 0.25 h
  % IPA (inhibition of platelet aggregation) calculated using maximum platelet aggregation values, mean ± SD: 61.4 ± 15.1%
[2]; 1 mg s.c., 0.5 h
  % IPA (inhibition of platelet aggregation) calculated using maximum platelet aggregation values, mean ± SD: 64.4 ± 12.8%
[2]; 1 mg s.c., 3 h
  % IPA (inhibition of platelet aggregation) calculated using maximum platelet aggregation values, mean ± SD: 15.8 ± 20.0%
[2]; 1 mg s.c., 4 h
  % IPA (inhibition of platelet aggregation) calculated using maximum platelet aggregation values, mean ± SD: −10.0 ± 24.2%
[2]; 1 mg s.c., 5 h
  % IPA (inhibition of platelet aggregation) calculated using maximum platelet aggregation values, mean ± SD: −6.1 ± 26.0%
[2]; 1 mg s.c., 12 h
  % IPA (inhibition of platelet aggregation) calculated using maximum platelet aggregation values, mean ± SD: −4.5 ± 24.7%
[2]; 1 mg s.c., 48 h
  % IPA (inhibition of platelet aggregation) calculated using maximum platelet aggregation values, mean ± SD: −47.7 ± 29.9%
[2]; 2 mg s.c., 0.25 h
  % IPA (inhibition of platelet aggregation) calculated using maximum platelet aggregation values, mean ± SD: 60.3 ± 48.3%
[2]; 2 mg s.c., 0.5 h
  % IPA (inhibition of platelet aggregation) calculated using maximum platelet aggregation values, mean ± SD: 79.5 ± 10.8%
[2]; 2 mg s.c., 3 h
  % IPA (inhibition of platelet aggregation) calculated using maximum platelet aggregation values, mean ± SD: 36.8 ± 30.0%
[2]; 2 mg s.c., 4 h
  % IPA (inhibition of platelet aggregation) calculated using maximum platelet aggregation values, mean ± SD: 35.5 ± 18.9%
[2]; 2 mg s.c., 5 h
  % IPA (inhibition of platelet aggregation) calculated using maximum platelet aggregation values, mean ± SD: 14.1 ± 28.4%
[2]; 2 mg s.c., 12 h
  % IPA (inhibition of platelet aggregation) calculated using maximum platelet aggregation values, mean ± SD: 31.3 ± 28.9%
[2]; 2 mg s.c., 48 h
  % IPA (inhibition of platelet aggregation) calculated using maximum platelet aggregation values, mean ± SD: 11.3 ± 38.5%
[2]; 4 mg s.c., 0.25 h
  % IPA (inhibition of platelet aggregation) calculated using maximum platelet aggregation values, mean ± SD: 79.7 ± 6.0%
[2]; 4 mg s.c., 0.5 h
  % IPA (inhibition of platelet aggregation) calculated using maximum platelet aggregation values, mean ± SD: 84.7 ± 5.4%
[2]; 4 mg s.c., 3 h
  % IPA (inhibition of platelet aggregation) calculated using maximum platelet aggregation values, mean ± SD: 58.5 ± 7.2%
[2]; 4 mg s.c., 4 h
  % IPA (inhibition of platelet aggregation) calculated using maximum platelet aggregation values, mean ± SD: 50.6 ± 22.1%
[2]; 4 mg s.c., 5 h
  % IPA (inhibition of platelet aggregation) calculated using maximum platelet aggregation values, mean ± SD: 47.9 ± 17.9%
[2]; 4 mg s.c., 12 h
  % IPA (inhibition of platelet aggregation) calculated using maximum platelet aggregation values, mean ± SD: 37.4 ± 16.7%
[2]; 4 mg s.c., 48 h
  % IPA (inhibition of platelet aggregation) calculated using maximum platelet aggregation values, mean ± SD: 2.1 ± 16.3%
[2]; 8 mg s.c., 0.25 h
  % IPA (inhibition of platelet aggregation) calculated using maximum platelet aggregation values, mean ± SD: 88.9 ± 8.4%
[2]; 8 mg s.c., 0.5 h
  % IPA (inhibition of platelet aggregation) calculated using maximum platelet aggregation values, mean ± SD: 90.0 ± 8.5%
[2]; 8 mg s.c., 3 h
  % IPA (inhibition of platelet aggregation) calculated using maximum platelet aggregation values, mean ± SD: 77.9 ± 19.5%
[2]; 8 mg s.c., 4 h
  % IPA (inhibition of platelet aggregation) calculated using maximum platelet aggregation values, mean ± SD: 70.9 ± 12.5%
[2]; 8 mg s.c., 5 h
  % IPA (inhibition of platelet aggregation) calculated using maximum platelet aggregation values, mean ± SD: 75.2 ± 11.5%
[2]; 8 mg s.c., 12 h
  % IPA (inhibition of platelet aggregation) calculated using maximum platelet aggregation values, mean ± SD: 64.0 ± 10.4%
[2]; 8 mg s.c., 48 h
  % IPA (inhibition of platelet aggregation) calculated using maximum platelet aggregation values, mean ± SD: −1.3 ± 33.7%
[2]; 16 mg s.c.
  duration for which mean % IPA≥85% was sustained post administration: approximately 5 h
[2]; 16 mg s.c., 0.25 h
  % IPA (inhibition of platelet aggregation) calculated using maximum platelet aggregation values, mean ± SD: 92.8 ± 5.5%
[2]; 16 mg s.c., 0.5 h
  % IPA (inhibition of platelet aggregation) calculated using maximum platelet aggregation values, mean ± SD: 93.1 ± 3.6%
[2]; 16 mg s.c., 3 h
  % IPA (inhibition of platelet aggregation) calculated using maximum platelet aggregation values, mean ± SD: 95.0 ± 1.2%
[2]; 16 mg s.c., 4 h
  % IPA (inhibition of platelet aggregation) calculated using maximum platelet aggregation values, mean ± SD: 88.2 ± 4.7%
[2]; 16 mg s.c., 5 h
  % IPA (inhibition of platelet aggregation) calculated using maximum platelet aggregation values, mean ± SD: 87.6 ± 5.5%
[2]; 16 mg s.c., 12 h
  % IPA (inhibition of platelet aggregation) calculated using maximum platelet aggregation values, mean ± SD: 76.0 ± 13.8%
[2]; 16 mg s.c., 48 h
  % IPA (inhibition of platelet aggregation) calculated using maximum platelet aggregation values, mean ± SD: −1.6 ± 43.8%
[2]; 32 mg s.c.
  duration for which mean % IPA≥85% was sustained post administration: ~12 h
[2]; 32 mg s.c., 0.25 h
  % IPA (inhibition of platelet aggregation) calculated using maximum platelet aggregation values, mean ± SD: 95.5 ± 2.7%
[2]; 32 mg s.c., 0.5 h
  % IPA (inhibition of platelet aggregation) calculated using maximum platelet aggregation values, mean ± SD: 94.5 ± 2.0%
[2]; 32 mg s.c., 3 h
  % IPA (inhibition of platelet aggregation) calculated using maximum platelet aggregation values, mean ± SD: 94.5 ± 2.0%
[2]; 32 mg s.c., 4 h
  % IPA (inhibition of platelet aggregation) calculated using maximum platelet aggregation values, mean ± SD: 91.2 ± 1.9%
[2]; 32 mg s.c., 5 h
  % IPA (inhibition of platelet aggregation) calculated using maximum platelet aggregation values, mean ± SD: 92.1 ± 2.6%
[2]; 32 mg s.c., 12 h
  % IPA (inhibition of platelet aggregation) calculated using maximum platelet aggregation values, mean ± SD: 83.5 ± 12.9%
[2]; 32 mg s.c., 48 h
  % IPA (inhibition of platelet aggregation) calculated using maximum platelet aggregation values, mean ± SD: 29.8 ± 20.9%
[2]; at each dose level (1 to 32 mg s.c.)
  time post dosing at which peak % IPA was achieved: 15 to 30 min
[2]; doses ≥4 mg s.c.
  peak % IPA: exceeded 85%
[2]; doses ≥8 mg s.c.
  peak % IPA: exceeded 85%
  time in which peak % IPA exceeded 85%: less than 15 min
[3]
  solubility: 75 mg/mL
[4]
  bleeding events: No bleeding events were observed
[5]
  therapeutic window: significantly wider therapeutic window even than Ticagrelor
